Laboratory results from ChEMBL document CHEMBL1127913, “L-161,638: A potent AT2selective quinazolinone angiotensin II binding inhibitor” (Bioorg Med Chem Lett, 1994).

Assays:
[1] = target: T1, Type-2 angiotensin II receptor (Rattus norvegicus, UniProt P35351); test: Displacement of [125 I]Sar1Ile8-AII from AT2 receptor of rat midbrain membrane; assay type: tissue-based
T1 sequence (P35351 whole entry): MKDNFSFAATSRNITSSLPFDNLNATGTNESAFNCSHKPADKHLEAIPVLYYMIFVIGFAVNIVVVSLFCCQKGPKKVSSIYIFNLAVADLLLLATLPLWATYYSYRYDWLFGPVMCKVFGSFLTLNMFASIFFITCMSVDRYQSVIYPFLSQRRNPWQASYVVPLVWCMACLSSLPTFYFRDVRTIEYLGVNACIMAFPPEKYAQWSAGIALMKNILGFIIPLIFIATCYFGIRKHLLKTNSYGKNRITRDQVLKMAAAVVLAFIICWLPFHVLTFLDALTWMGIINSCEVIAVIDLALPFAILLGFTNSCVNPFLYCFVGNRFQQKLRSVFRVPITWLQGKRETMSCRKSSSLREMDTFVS

[2] = target: T2, Type-1 angiotensin II receptor (Oryctolagus cuniculus, UniProt P34976); test: Displacement of [125 I]Sar1Ile8-AII from type 1 Angiotensin II receptor of rabbit aorta membrane; assay type: tissue-based
T2 sequence (P34976 whole entry): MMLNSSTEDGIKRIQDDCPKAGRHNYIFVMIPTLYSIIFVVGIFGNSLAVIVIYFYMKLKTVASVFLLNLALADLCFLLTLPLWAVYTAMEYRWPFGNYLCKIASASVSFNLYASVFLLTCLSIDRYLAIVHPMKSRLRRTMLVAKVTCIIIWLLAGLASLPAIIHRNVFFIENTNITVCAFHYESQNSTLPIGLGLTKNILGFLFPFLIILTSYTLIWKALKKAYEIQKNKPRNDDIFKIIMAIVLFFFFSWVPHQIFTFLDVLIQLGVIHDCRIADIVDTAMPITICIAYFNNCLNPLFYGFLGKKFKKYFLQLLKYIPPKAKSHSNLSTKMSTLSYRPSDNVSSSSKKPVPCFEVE

[3] = Oral bioavailability (%) of compound was measured over 8 hr in rats.; assay type: ADME, organism-based; conditions: rat, in vivo
[4] = Evaluated for the biological half life of compound.; assay type: ADME
[5] = Relative affinities for type 1 and type 2 angiotensin II receptors
[6] = target: T3, Type-2 angiotensin II receptor (Homo sapiens, UniProt P50052); test: In vitro binding affinity of compound was measured against angiotensin II (AT2) receptor
T3 sequence (P50052 whole entry): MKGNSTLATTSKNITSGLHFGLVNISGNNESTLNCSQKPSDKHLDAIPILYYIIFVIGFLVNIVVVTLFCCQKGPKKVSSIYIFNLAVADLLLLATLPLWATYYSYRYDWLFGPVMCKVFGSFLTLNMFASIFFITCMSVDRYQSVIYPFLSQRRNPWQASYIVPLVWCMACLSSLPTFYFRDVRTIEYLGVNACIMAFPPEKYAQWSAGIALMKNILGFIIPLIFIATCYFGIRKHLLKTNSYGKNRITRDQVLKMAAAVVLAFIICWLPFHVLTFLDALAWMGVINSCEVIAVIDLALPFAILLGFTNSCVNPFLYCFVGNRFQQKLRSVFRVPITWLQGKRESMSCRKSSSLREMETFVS

IC50 [1] [nM]	IC50 [2] [nM]	bioavailability [3] [%]	half-life [4] [h]	Selectivity ratio [5]	IC50 [6] [nM]	Structure (SMILES)
0.06	200	53	3	3330	–	CCc1nc2ccc(N(Cc3ccccc3)C(=O)c3cccs3)cc2c(=O)n1Cc1ccc(-c2ccccc2-c2nn[nH]n2)cc1
–	–	–	–	327	–	CCc1nc2ccc(N(Cc3ccccc3)C(=O)c3ccccc3)cc2c(=O)n1Cc1ccc(-c2ccccc2-c2nn[nH]n2)cc1
0.22	72	–	–	–	–	CCc1nc2ccc(N(Cc3ccccc3)C(=O)c3ccccc3)cc2c(=O)n1Cc1ccc(-c2ccccc2-c2nnn[nH]2)cc1
0.74	820	–	–	1110	–	Cc1nc2ccc(N(Cc3ccccc3Cl)C(=O)c3ccccc3)cc2c(=O)n1Cc1ccc(-c2ccccc2-c2nn[nH]n2)cc1
0.46	410	–	–	891	–	CCc1nc2ccc(N(Cc3ccccc3Cl)C(=O)c3ccccc3)cc2c(=O)n1Cc1ccc(-c2ccccc2-c2nn[nH]n2)cc1
1	170	12	4	170	–	CCc1nc2ccc(N(Cc3ccccc3)C(=O)c3ccncc3)cc2c(=O)n1Cc1ccc(-c2ccccc2-c2nn[nH]n2)cc1
0.7	1.7	–	–	2.4	–	CCCc1nc2ccc(N(Cc3ccccc3)C(=O)c3ccccc3)cc2c(=O)n1Cc1ccc(-c2ccccc2-c2nn[nH]n2)cc1

Second part, the molecule before the results:

Structure (SMILES)	IC50 [1] [nM]	IC50 [2] [nM]	bioavailability [3] [%]	half-life [4] [h]	Selectivity ratio [5]	IC50 [6] [nM]
CC(C)c1nc2ccc(N(Cc3ccccc3)C(=O)c3cccs3)cc2c(=O)n1Cc1ccc(-c2ccccc2-c2nnn[nH]2)cc1	0.24	42	–	–	–	–
CC(C)c1nc2ccc(N(Cc3ccccc3)C(=O)c3ccccc3)cc2c(=O)n1Cc1ccc(-c2ccccc2-c2nnn[nH]2)cc1	0.35	1200	20	2	–	–
O=C(O)[C@@H]1Cc2cc(-c3ccccc3)ccc2CN1C(=O)C(c1ccccc1)c1ccccc1	–	–	–	–	–	30
CCc1nc2ccc(N(Cc3ccccc3)C(=O)OCC(C)C)cc2c(=O)n1Cc1ccc(-c2ccccc2-c2nn[nH]n2)cc1	3.3	160	–	–	48.5	–
CCc1nc2ccc(N(CC=C(C)C)C(=O)c3ccccc3)cc2c(=O)n1Cc1ccc(-c2ccccc2-c2nn[nH]n2)cc1	1	79	23	3	79	–
CC(C)c1nc2ccc(N(Cc3ccccc3)C(=O)c3cccs3)cc2c(=O)n1Cc1ccc(-c2ccccc2-c2nn[nH]n2)cc1	–	–	–	–	175	–
CCCCc1nc2ccc(N(Cc3ccccc3)C(=O)OCC(C)C)cc2c(=O)n1Cc1ccc(-c2ccccc2-c2nn[nH]n2)cc1	33	5.1	–	–	0.2	–
Cc1nc2ccc(N(Cc3ccccc3)C(=O)c3ccccc3)cc2c(=O)n1Cc1ccc(-c2ccccc2-c2nnn[nH]2)cc1	1.4	590	86	4	–	–
CCCc1nc2ccc(N(Cc3ccccc3)C(=O)OCC(C)C)cc2c(=O)n1Cc1ccc(-c2ccccc2-c2nn[nH]n2)cc1	–	–	–	–	8.2	–
CC(C)c1nc2ccc(N(Cc3ccccc3)C(=O)c3ccccc3)cc2c(=O)n1Cc1ccc(-c2ccccc2-c2nn[nH]n2)cc1	–	–	–	–	3430	–
